Source: the CheMixHub drug solubility set

Assay: xn = mol fraction of the nth substance listed, in the solute-free solvent

N#CC(c1ccc(Cl)cc1)c1c(Cl)cc(-n2ncc(=O)[nH]c2=O)cc1Cl (stereo unspecified) + CC(C)=O + CCO
solubility (g/100 g solution)
Conditions	283.15 K	288.15 K	293.15 K	298.15 K	303.15 K	308.15 K	313.15 K	318.15 K	323.15 K
x2 = 0.1655	2.81	3.32	3.87	4.51	5.25	6.03	6.91	7.89	8.92
x2 = 0.3459	4.12	4.81	5.56	6.42	7.41	8.46	9.6	10.9	12.2
x2 = 0.5434	5.39	6.26	7.2	8.24	9.47	10.8	12.2	13.7	15.2
x2 = 0.7604	6.63	7.67	8.77	10	11.4	13	14.6	16.3	18.1

Cc1nc(C)c(C)nc1C + CO + CC#N
solubility (g/100 g solution)
Conditions	273.15 K	278.15 K	283.15 K	288.15 K	293.15 K	298.15 K	303.15 K	308.15 K	313.15 K
x2 = 0.1	12.7	15	18.1	21.4	25.1	28.9	33.9	37.6	44.6
x2 = 0.2	17.3	20.5	23.4	26.7	30.8	34.9	40.1	43.5	50.5
x2 = 0.3	21.2	24.5	28.2	31.8	36.5	40.2	46	49.2	55.7
x2 = 0.4	25.6	28.9	32.5	36.4	41	44.3	50	53.8	60.4
x2 = 0.5	28.6	32	36.6	39.9	45.1	48.2	53.4	57.3	63.5
x2 = 0.6	31.3	34.5	39.2	42.7	47.6	51.5	56.2	60.5	67.4
x2 = 0.7	33.6	36.1	40.8	44.6	49.4	53.8	59	63.1	70
x2 = 0.8	34.6	37.3	42.2	45.7	50.8	54.8	61.3	64.9	71.2
x2 = 0.9	35	37.6	42.7	45.6	51	54.9	61.9	65.3	70.7

O=C(O)c1ccc(-n2nc(-c3ccccc3O)nc2-c2ccccc2O)cc1 + CO + CC#N
298.15 K
Conditions	solubility (g/100 g solution)
x2 = 0.1246	4.33
x2 = 0.2426	7.73
x2 = 0.3544	11.2
x2 = 0.4606	14.2
x2 = 0.5616	16.4
x2 = 0.6577	17.6
x2 = 0.7493	18
x2 = 0.8367	17.2
x2 = 0.9202	15.3

O=CC(O)C(O)C(O)CO (stereo unspecified) + CO + ClCCl
solubility (g/100 g solution)
Conditions	x2 = 0.1	x2 = 0.2	x2 = 0.3	x2 = 0.4	x2 = 0.5	x2 = 0.6	x2 = 0.7	x2 = 0.8	x2 = 0.9
283.15 K	0.097	0.564	1.19	1.64	2.52	3.8	4.89	6.81	9.89
288.15 K	0.17	0.673	1.33	1.81	2.86	4.63	5.87	8.86	12.6
293.15 K	0.204	0.696	1.5	2.4	3.52	5.59	7.17	10.8	15.8
298.15 K	0.281	0.774	1.78	2.73	4.3	6.87	9.1	13.4	20.1
303.15 K	0.286	0.82	2.17	3.22	5.29	9.18	12.7	18.3	25.3

CC(C)Oc1ccc2c(=O)c(-c3ccccc3)coc2c1 + CC(=O)N(C)C + CCO
solubility (g/100 g solution)
Conditions	278.15 K	283.15 K	288.15 K	293.15 K	298.15 K	303.15 K	308.15 K	313.15 K	318.15 K	323.15 K
x2 = 0.1146	1.53	1.91	2.45	3.3	4.13	5.36	7.01	8.71	11	14
x2 = 0.2681	2.21	2.72	3.46	4.21	5.26	6.49	8.02	9.92	12.2	15.1
x2 = 0.4379	4.02	4.85	5.82	7.08	8.67	10.2	12.4	14.5	17.7	21.8
x2 = 0.6771	6.41	8.04	9.6	11.1	13	15.4	18	21.2	25	28.9

CC(=O)OC(OC(C)=O)c1ccc([N+](=O)[O-])o1 + C1CCOC1 + CC#N
solubility (g/100 g solution)
Conditions	278.15 K	283.15 K	288.15 K	293.15 K	298.15 K	303.15 K	308.15 K	313.15 K	318.15 K	323.15 K
x2 = 0.1463	5.45	7.32	9.5	12.1	15	18.6	22.7	27.8	33.5	40
x2 = 0.2961	9.28	11.7	14.9	18.5	23.1	28.4	34.3	40.7	47.5	54.4
x2 = 0.4354	12.3	15.2	19.6	24.6	29.7	35.9	42.6	49.4	56	62.3
x2 = 0.5816	14.6	17.7	23	28.6	34.3	40.8	47.9	54.4	61	67.2
x2 = 0.7445	17.2	21.4	26.5	32.5	38.5	45.1	51.9	58.3	64.6	70.5
x2 = 0.8896	23.6	28	33.2	39.3	45.3	51.9	57.8	63.6	68.8	73.9
